ChEMBL document CHEMBL1143695, “Synthesis and biological studies of novel 2-aminoalkylethers as potential antiarrhythmic agents for the conversion of atrial fibrillation” (J Med Chem, 2007)

What was measured:
Rattus norvegicus [1] = assay: Antiarrhythmic activity in intravenously dosed Sprague-Dawley rat with ischemia-induced arrhythmia; assay type: functional, Heart
Rattus norvegicus [2] = assay: CNS toxicity in iv dosed Sprague-Dawley rat assessed as cumulative convulsion dose; assay type: organism-based; details: in vivo

SMILES | ED50 (Rattus norvegicus [1]) [µmol/kg/min] | Activity (Rattus norvegicus [2]) [µmol/kg]
c1ccc2c(CCO[C@@H]3CCCC[C@H]3N3CCCC3)cccc2c1 | 0.9 | –
Brc1ccc(OCCO[C@@H]2CCCC[C@H]2N2CCOCC2)cc1 | 2.5 | 83
O=C1CCN([C@@H]2CCCC[C@H]2OCCc2ccccc2Br)C1 | – | 155
Clc1cccc(Cl)c1CCO[C@@H]1CCCC[C@H]1N1CCSC1 | 6.5 | 331
O=C1CCN([C@@H]2CCCC[C@@H]2OCCc2cccc3ccccc23)C1 | 1.6 | 145
OC1CCN([C@@H]2CCCC[C@H]2OCCc2cccc3ccccc23)C1 (mixture of isomers) | 0.8 | 67
FC(F)(F)c1ccccc1CCO[C@H]1CCCC[C@H]1N1CCOCC1 (single isomer, unassigned) | 1.4 | 102
O=C1CCN([C@@H]2CCCC[C@H]2OCC(c2ccccc2)c2ccccc2)C1 | 2.5 | 155
c1ccc2cc(CCO[C@@H]3CCC[C@H]3N3CCOCC3)ccc2c1 | 1.5 | 187
C=C[C@H]1CN2CC[C@H]1C[C@@H]2[C@@H](O)c1ccnc2ccc(OC)cc12 [QUINIDINE] | 4 | 317
COc1ccc(CCO[C@@H]2CCCC[C@H]2N2CCNCC2)cc1OC | 1.6 | 392
Clc1ccc(CCO[C@@H]2CCCC[C@H]2N2CCOCC2)c(Cl)c1 | 2.1 | 94
O=C1CCN([C@@H]2CCCC[C@H]2OCCc2ccc(Br)c3ccccc23)C1 | 2.8 | 246
c1ccc2c(CCO[C@@H]3CCCC[C@H]3N3CCC4(C3)OCCO4)cccc2c1 | – | 41
COc1ccc(CCO[C@@H]2CCCC[C@H]2N2CCC(=O)C2)cc1OC | 4.5 | 235
FC(F)(F)c1ccccc1CCO[C@@H]1CCCC[C@H]1N1CCOCC1 | 0.8 | 134
COc1ccc(CCO[C@@H]2CCCC[C@H]2N2CCC3(C2)OCCO3)cc1OC | 1.6 | 91
COc1ccc(CCO[C@@H]2CCCC[C@H]2N2CCCC2)cc1OC | 1.3 | 118
O=C1CCN([C@@H]2CCCC[C@H]2OCCc2ccc(Br)cc2Br)C1 | – | 246
O=C1CCN([C@@H]2CCCC[C@H]2OCCc2ccc(Br)cc2)C1 | 8 | 161
c1ccc2cc(OCCO[C@@H]3CCCC[C@H]3N3CCOCC3)ccc2c1 | – | 62
O=C1CCN([C@@H]2CCCC[C@H]2OCCCC2CCCCC2)C1 | – | 300
OC1CCN([C@@H]2CCCC[C@@H]2OCCc2cccc3ccccc23)C1 (mixture of isomers) | 0.4 | 70
Brc1cccc(CCO[C@@H]2CCCC[C@H]2N2CCOCC2)c1 | 1.9 | 131
O=C1CCN([C@@H]2CCCC[C@H]2OCCc2csc3ccccc23)C1 | – | 203
COc1ccc(CCCCO[C@@H]2CCCC[C@H]2N2CCOCC2)cc1OC | 1.5 | 67
CC(=O)N1CCN([C@@H]2CCCC[C@H]2OCCc2ccc3ccccc3c2)CC1 | – | 67
Brc1ccc(CCO[C@@H]2CCCC[C@H]2N2CCOCC2)c(Br)c1 | – | 123
OC1CCN([C@@H]2CCCC[C@H]2OCCc2ccccc2Br)C1 (mixture of isomers) | 0.4 | 67
COCCN(CCOC)[C@@H]1CCCC[C@H]1OCCc1ccc2ccccc2c1 | 3 | 83
